Test results taken from ChEMBL document CHEMBL1140526, “Effect of varying the 4''-position of arbekacin derivatives on antibacterial activity against MRSA and Pseudomonas aeruginosa” (2007).
Values after ≈ are worked out from the molar mass of the structure shown.

What was measured:
Assay type in all cases: functional
Staphylococcus aureus [1] = experiment: Antibacterial activity against Staphylococcus aureus 209P JC-1
Staphylococcus aureus [2] = experiment: Antibacterial activity against methicillin-resistant Staphylococcus aureus MF490
Staphylococcus aureus [3] = experiment: Antibacterial activity against methicillin-resistant Staphylococcus aureus MSC03571
Escherichia coli = experiment: Antibacterial activity against Escherichia coli NIH JC2
Pseudomonas aeruginosa [4] = experiment: Antibacterial activity against Pseudomonas aeruginosa PA01
Pseudomonas aeruginosa [5] = experiment: Antibacterial activity against Pseudomonas aeruginosa N101
Pseudomonas aeruginosa [6] = experiment: Antibacterial activity against Pseudomonas aeruginosa GN315
Pseudomonas aeruginosa [7] = experiment: Antibacterial activity against Pseudomonas aeruginosa isolates
Staphylococcus aureus [8] = experiment: Antibacterial activity against methicillin resistant Staphylococcus aureus isolates

## NCC[C@H](O)C(=O)N[C@@H]1C[C@H](N)[C@@H](O[C@H]2O[C@H](CN)CC[C@H]2N)[C@@H](F)[C@H]1O[C@H]1O[C@H](CO)[C@H](O)[C@H](N)[C@H]1O
Staphylococcus aureus [1]
  MIC: 0.06 µg/mL (≈ 0.108 µM)
Staphylococcus aureus [2]
  MIC: 4 µg/mL (≈ 7.21 µM)
Staphylococcus aureus [3]
  MIC: 2 µg/mL (≈ 3.61 µM)
Escherichia coli
  MIC: 1 µg/mL (≈ 1.8 µM)
Pseudomonas aeruginosa [4]
  MIC: 2 µg/mL (≈ 3.61 µM)
Pseudomonas aeruginosa [5]
  MIC: 0.5 µg/mL (≈ 0.902 µM)
Pseudomonas aeruginosa [6]
  MIC: 32 µg/mL (≈ 57.7 µM)

## NCC[C@H](O)C(=O)N[C@@H]1C[C@H](N)[C@@H](O[C@H]2O[C@H](CN)CC[C@H]2N)[C@@H](N)[C@H]1O[C@H]1O[C@H](CO)[C@H](O)[C@H](N)[C@H]1O
Staphylococcus aureus [1]
  MIC: 0.25 µg/mL (≈ 0.453 µM)
Staphylococcus aureus [2]
  MIC: 4 µg/mL (≈ 7.25 µM)
Staphylococcus aureus [3]
  MIC: 4 µg/mL (≈ 7.25 µM)
Escherichia coli
  MIC: 2 µg/mL (≈ 3.63 µM)
Pseudomonas aeruginosa [4]
  MIC: 4 µg/mL (≈ 7.25 µM)
Pseudomonas aeruginosa [5]
  MIC: 1 µg/mL (≈ 1.81 µM)
Pseudomonas aeruginosa [6]
  MIC: > 64 µg/mL

## NCC[C@H](O)C(=O)N[C@@H]1C[C@H](N)[C@@H](O[C@H]2O[C@H](CN)CC[C@H]2N)[C@H](O)[C@H]1O[C@H]1O[C@H](CO)[C@H](O)[C@H](N)[C@H]1O
Staphylococcus aureus [1]
  MIC: 0.13 µg/mL (≈ 0.235 µM)
Staphylococcus aureus [2]
  MIC: 32 µg/mL (≈ 57.9 µM)
Staphylococcus aureus [3]
  MIC: 16 µg/mL (≈ 29 µM)
Escherichia coli
  MIC: 1 µg/mL (≈ 1.81 µM)
Pseudomonas aeruginosa [4]
  MIC: 4 µg/mL (≈ 7.24 µM)
Pseudomonas aeruginosa [5]
  MIC: 0.25 µg/mL (≈ 0.452 µM)
Pseudomonas aeruginosa [6]
  MIC: 32 µg/mL (≈ 57.9 µM)

## [N-]=[N+]=N[C@H]1[C@@H](O[C@H]2O[C@H](CO)[C@H](O)[C@H](N)[C@H]2O)[C@H](NC(=O)[C@@H](O)CCN)C[C@H](N)[C@H]1O[C@H]1O[C@H](CN)CC[C@H]1N
Staphylococcus aureus [1]
  MIC: 0.25 µg/mL (≈ 0.433 µM)
Staphylococcus aureus [2]
  MIC: 4 µg/mL (≈ 6.92 µM)
Staphylococcus aureus [3]
  MIC: 4 µg/mL (≈ 6.92 µM)
Escherichia coli
  MIC: 1 µg/mL (≈ 1.73 µM)
Pseudomonas aeruginosa [4]
  MIC: 8 µg/mL (≈ 13.8 µM)
Pseudomonas aeruginosa [5]
  MIC: 0.5 µg/mL (≈ 0.866 µM)
Pseudomonas aeruginosa [6]
  MIC: 128 µg/mL (≈ 222 µM)

## NCC[C@H](O)C(=O)N[C@@H]1C[C@H](N)[C@@H](O[C@H]2O[C@H](CN)CC[C@H]2N)[C@H](O)[C@H]1O[C@H]1O[C@H](CO)[C@H](N)[C@H](N)[C@H]1O
Staphylococcus aureus [1]
  MIC: 4 µg/mL (≈ 7.25 µM)
Staphylococcus aureus [2]
  MIC: > 128 µg/mL
Staphylococcus aureus [3]
  MIC: > 128 µg/mL
Escherichia coli
  MIC: 16 µg/mL (≈ 29 µM)
Pseudomonas aeruginosa [4]
  MIC: 64 µg/mL (≈ 116 µM)
Pseudomonas aeruginosa [5]
  MIC: 8 µg/mL (≈ 14.5 µM)
Pseudomonas aeruginosa [6]
  MIC: > 128 µg/mL

## NCC[C@H](O)C(=O)N[C@@H]1C[C@H](N)[C@@H](O[C@H]2O[C@H](CN)CC[C@H]2N)[C@H](O)[C@H]1O[C@H]1O[C@H](CO)C[C@H](N)[C@H]1O
Staphylococcus aureus [1]
  MIC: 0.13 µg/mL (≈ 0.242 µM)
Staphylococcus aureus [2]
  MIC: > 64 µg/mL
Staphylococcus aureus [3]
  MIC: 64 µg/mL (≈ 119 µM)
Escherichia coli
  MIC: 2 µg/mL (≈ 3.73 µM)
Pseudomonas aeruginosa [4]
  MIC: 4 µg/mL (≈ 7.45 µM)
Pseudomonas aeruginosa [5]
  MIC: 0.5 µg/mL (≈ 0.932 µM)
Pseudomonas aeruginosa [6]
  MIC: 32 µg/mL (≈ 59.6 µM)

## NCC[C@H](O)C(=O)N[C@@H]1C[C@H](N)[C@@H](O[C@H]2O[C@H](CN)CC[C@H]2N)[C@@H](O)[C@H]1O[C@H]1O[C@H](CO)[C@H](O)[C@H](N)[C@H]1O
Staphylococcus aureus [1]
  MIC: 0.06 µg/mL (≈ 0.109 µM)
Staphylococcus aureus [2]
  MIC: 1 µg/mL (≈ 1.81 µM)
Staphylococcus aureus [3]
  MIC: 1 µg/mL (≈ 1.81 µM)
Escherichia coli
  MIC: 0.5 µg/mL (≈ 0.905 µM)
Pseudomonas aeruginosa [4]
  MIC: 1 µg/mL (≈ 1.81 µM)
Pseudomonas aeruginosa [5]
  MIC: 0.25 µg/mL (≈ 0.452 µM)
Pseudomonas aeruginosa [6]
  MIC: 16 µg/mL (≈ 29 µM)
Pseudomonas aeruginosa [7]
  MIC50: 1 µg/mL (≈ 1.81 µM)
  MIC90: 4 µg/mL (≈ 7.24 µM)
Staphylococcus aureus [8]
  MIC50: 0.25 µg/mL (≈ 0.452 µM)
  MIC90: 0.25 µg/mL (≈ 0.452 µM)

## NCC[C@H](O)C(=O)N[C@@H]1C[C@H](N)[C@@H](O[C@H]2O[C@H](CN)CC[C@H]2N)[C@H](O)[C@H]1O[C@H]1O[C@@H](CO)[C@@H](O)[C@H](N)[C@H]1O
Staphylococcus aureus [1]
  MIC: 0.06 µg/mL (≈ 0.109 µM)
Staphylococcus aureus [2]
  MIC: 2 µg/mL (≈ 3.62 µM)
Staphylococcus aureus [3]
  MIC: 2 µg/mL (≈ 3.62 µM)
Escherichia coli
  MIC: 1 µg/mL (≈ 1.81 µM)
Pseudomonas aeruginosa [4]
  MIC: 2 µg/mL (≈ 3.62 µM)
Pseudomonas aeruginosa [5]
  MIC: 0.25 µg/mL (≈ 0.452 µM)
Pseudomonas aeruginosa [6]
  MIC: 8 µg/mL (≈ 14.5 µM)

## NCC[C@H](O)C(=O)N[C@@H]1C[C@H](N)[C@@H](O[C@H]2O[C@H](CN)CC[C@H]2N)[C@@H](Cl)[C@H]1O[C@H]1O[C@H](CO)[C@H](O)[C@H](N)[C@H]1O
Staphylococcus aureus [1]
  MIC: 0.13 µg/mL (≈ 0.228 µM)
Staphylococcus aureus [2]
  MIC: 2 µg/mL (≈ 3.5 µM)
Staphylococcus aureus [3]
  MIC: 2 µg/mL (≈ 3.5 µM)
Escherichia coli
  MIC: 1 µg/mL (≈ 1.75 µM)
Pseudomonas aeruginosa [4]
  MIC: 4 µg/mL (≈ 7 µM)
Pseudomonas aeruginosa [5]
  MIC: 0.5 µg/mL (≈ 0.876 µM)
Pseudomonas aeruginosa [6]
  MIC: > 32 µg/mL

## CNC[C@@H]1CC[C@@H](N)[C@@H](O[C@H]2[C@@H](O)[C@@H](O[C@H]3O[C@H](CO)[C@H](O)[C@H](N)[C@H]3O)[C@H](NC(=O)[C@@H](O)CCN)C[C@@H]2N)O1
Staphylococcus aureus [1]
  MIC: 0.13 µg/mL (≈ 0.229 µM)
Staphylococcus aureus [2]
  MIC: 4 µg/mL (≈ 7.06 µM)
Staphylococcus aureus [3]
  MIC: 1 µg/mL (≈ 1.76 µM)
Escherichia coli
  MIC: 1 µg/mL (≈ 1.76 µM)
Pseudomonas aeruginosa [4]
  MIC: 2 µg/mL (≈ 3.53 µM)
Pseudomonas aeruginosa [5]
  MIC: 0.5 µg/mL (≈ 0.882 µM)
Pseudomonas aeruginosa [6]
  MIC: 4 µg/mL (≈ 7.06 µM)

## [N-]=[N+]=N[C@@H]1[C@H](N)[C@@H](O)[C@@H](O[C@@H]2[C@@H](O)[C@H](O[C@H]3O[C@H](CN)CC[C@H]3N)[C@@H](N)C[C@H]2NC(=O)[C@@H](O)CCN)O[C@@H]1CO
Staphylococcus aureus [1]
  MIC: 0.13 µg/mL (≈ 0.225 µM)
Staphylococcus aureus [2]
  MIC: > 128 µg/mL
Staphylococcus aureus [3]
  MIC: 128 µg/mL (≈ 222 µM)
Escherichia coli
  MIC: 2 µg/mL (≈ 3.46 µM)
Pseudomonas aeruginosa [4]
  MIC: 16 µg/mL (≈ 27.7 µM)
Pseudomonas aeruginosa [5]
  MIC: 0.5 µg/mL (≈ 0.866 µM)
Pseudomonas aeruginosa [6]
  MIC: 64 µg/mL (≈ 111 µM)

## NCC[C@H](O)C(=O)N[C@@H]1C[C@H](N)[C@@H](O[C@H]2O[C@H](CN)CC[C@H]2N)[C@H](O)[C@H]1O[C@H]1O[C@H](CO)[C@@H](O)[C@H](N)[C@H]1O [ARBEKACIN]
Staphylococcus aureus [1]
  MIC: 0.06 µg/mL (≈ 0.109 µM)
Staphylococcus aureus [2]
  MIC: 64 µg/mL (≈ 116 µM)
Staphylococcus aureus [3]
  MIC: 16 µg/mL (≈ 29 µM)
Escherichia coli
  MIC: 1 µg/mL (≈ 1.81 µM)
Pseudomonas aeruginosa [4]
  MIC: 2 µg/mL (≈ 3.62 µM)
Pseudomonas aeruginosa [5]
  MIC: 0.25 µg/mL (≈ 0.452 µM)
Pseudomonas aeruginosa [6]
  MIC: 16 µg/mL (≈ 29 µM)
Pseudomonas aeruginosa [7]
  MIC50: 2 µg/mL (≈ 3.62 µM)
  MIC90: 16 µg/mL (≈ 29 µM)
Staphylococcus aureus [8]
  MIC50: 0.5 µg/mL (≈ 0.905 µM)
  MIC90: 2 µg/mL (≈ 3.62 µM)
